Test systems include A498 renal; HCT-15 colon; HOP-62 NSCLC; MOLT-4 leukemia; OVCAR-3 ovarian; SF-268 CNS; SK-MEL-28 melanoma; UACC-62 melanoma; TK-10 renal.
Common to all, as to assay: growth of human tumour cells (NCI), 48 h

Each structure is given as a SMILES string.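 Interpolation was linear, between the two tested concentrations surrounding the appropriate level; five concentrations were tested over 48 hours in 96-well plates. GI50: concentration for 50% inhibition of growth. TGI marks complete inhibition of growth.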 Where a SMILES comes first, the peptide text is derived from it. The star is where a group is joined. Boc = CC(C)(C)OC(=O)*

Turning to `C=C1CCCCCCCCCCC1S(=O)c1ccccc1` (stereo unspecified), the TGI was above 100 µM in the assay with A498 renal; above 100 µM in the assay on HCT-15 colon; above 100 µM with HOP-62 NSCLC; 78.5 µM in the assay on MOLT-4 leukemia; above 100 µM in the assay with OVCAR-3 ovarian; 95.8 µM in the assay with SF-268 CNS. The TGI in the assay on SK-MEL-28 melanoma and in the assay on UACC-62 melanoma was above 100 µM in each case.

As for `O=C1CSC2(CCN(CCCN3c4ccccc4Sc4ccc(Cl)cc43)CC2)N1`, the TGI in the assay on A498 renal came out at 31 µM; in the assay on HCT-15 colon, 20.8 µM; in the assay on HOP-62 NSCLC, 25.5 µM; with OVCAR-3 ovarian, 22.1 µM; in the assay with SF-268 CNS it was 26.6 µM; with SK-MEL-28 melanoma, 28.9 µM. For the same molecule, the TGI in the assay on TK-10 renal is 21.2 µM; with UACC-62 melanoma, 23.7 µM.

As to `O=C1NC(N2CCOCC2)=N/C1=C\c1ccccc1O`, the TGI in the assay on A498 renal, in the assay with HCT-15 colon, in the assay on HOP-62 NSCLC, in the assay with MOLT-4 leukemia, in the assay with OVCAR-3 ovarian and in the assay with SF-268 CNS was above 100 µM each time. Moreover, the TGI with SK-MEL-28 melanoma and with TK-10 renal was above 100 µM throughout.

As for `COc1ccc(-c2cn3ccnc3c(-c3ccc4ncn(C5CCCCC5)c4c3)n2)cc1`, the GI50 in the assay on A498 renal is 0.742 µM; in the assay on HCT-15 colon, 0.722 µM; in the assay on MOLT-4 leukemia, 2.66 µM; in the assay on OVCAR-3 ovarian, 0.411 µM; in the assay on SF-268 CNS, 2.38 µM; in the assay with SK-MEL-28 melanoma, 2.1 µM. The GI50 in the assay on TK-10 renal was 2.99 µM; in the assay with UACC-62 melanoma, 0.434 µM. In addition, the TGI in the assay on A498 renal, in the assay with HCT-15 colon, with MOLT-4 leukemia, in the assay on OVCAR-3 ovarian, in the assay on SF-268 CNS and in the assay on SK-MEL-28 melanoma was above 100 µM in each case. Also, the TGI in the assay with TK-10 renal was 68.9 µM; in the assay on UACC-62 melanoma, above 100 µM.

Regarding `Cc1nc2c(Br)cc(Br)cc2c(=O)n1-c1ccccc1N`, the TGI with A498 renal, with HCT-15 colon, with HOP-62 NSCLC, with MOLT-4 leukemia, in the assay on OVCAR-3 ovarian and in the assay with SF-268 CNS was above 100 µM in each case. Besides, the TGI in the assay with SK-MEL-28 melanoma and in the assay on UACC-62 melanoma was above 100 µM each time.

In the case of `Cc1nnc2c3c(-c4ccccc4)c(-c4ccccc4)oc3nc(N(C)C)n12`, the TGI in the assay with A498 renal, in the assay on HCT-15 colon, with MOLT-4 leukemia, with SF-268 CNS, in the assay with SK-MEL-28 melanoma and with TK-10 renal was above 100 µM in each case. The same molecule came in with a TGI in the assay on UACC-62 melanoma above 100 µM.

On to `O=S1(=O)c2ccccc2N2CCCc3cc(Cl)cc1c32`, for which the TGI in the assay on A498 renal, with HCT-15 colon, with HOP-62 NSCLC, in the assay with MOLT-4 leukemia, with OVCAR-3 ovarian and in the assay on SF-268 CNS was above 100 µM each time. For the same molecule, the TGI in the assay with SK-MEL-28 melanoma and in the assay with UACC-62 melanoma was above 100 µM in each case.

As to `CC(NC(=O)c1ccc(OP(=O)(OCC2=CC(=O)c3ccccc3C2=O)N(C)CCCCCl)cc1)c1ccc(OCC2CCCCC2)c(C(N)=O)c1` (stereo unspecified), the TGI in the assay with HCT-15 colon amounted to 24.7 µM; in the assay on HOP-62 NSCLC, 32.9 µM; in the assay with MOLT-4 leukemia it was 30 µM; in the assay with OVCAR-3 ovarian it was 17.4 µM; with SF-268 CNS it was 26.2 µM; with SK-MEL-28 melanoma, 27.2 µM. For the same molecule, the TGI was determined as 61.7 µM in the assay on TK-10 renal and 21.4 µM in the assay with UACC-62 melanoma.

Regarding `CCOC(=O)/C=C(/C(=O)OCC)n1cc(C)c(=O)n(Cc2cnnn2CCCCOC(C)=O)c1=O`, the TGI in the assay with HCT-15 colon is above 100 µM; in the assay with HOP-62 NSCLC, above 100 µM; with MOLT-4 leukemia it was 47.9 µM; in the assay with OVCAR-3 ovarian, 32.2 µM; with SF-268 CNS, above 100 µM; in the assay with SK-MEL-28 melanoma it was above 100 µM. In addition, the TGI with TK-10 renal turned out to be 26.7 µM; in the assay with UACC-62 melanoma, 57.7 µM.

As for `O=C(O)C(Cc1cccs1)C(=O)O`, the TGI with A498 renal, in the assay with HCT-15 colon, in the assay with HOP-62 NSCLC, in the assay on OVCAR-3 ovarian, with SF-268 CNS and in the assay with SK-MEL-28 melanoma was above 100 µM each time. Moreover, the TGI in the assay on TK-10 renal and with UACC-62 melanoma was above 100 µM each time.

For the molecule `CC1CC[C@]2(C(=O)O)CCC3(C)C(=C2[C@H]1C)C=CC1[C@@]2(C)CC[C@H](O)C(C)(C)C2CC[C@]13C` (stereo partly specified), the TGI is above 100 µM with HCT-15 colon; 74.8 µM in the assay with HOP-62 NSCLC; above 100 µM in the assay with MOLT-4 leukemia; 73.1 µM in the assay with OVCAR-3 ovarian; above 100 µM in the assay on SF-268 CNS; 98.4 µM with SK-MEL-28 melanoma. Also, the TGI in the assay on TK-10 renal and with UACC-62 melanoma was above 100 µM in each case.

As to `OC1CN=C2c3ccccc3C(O)(c3ccc(Cl)cc3)N2C1` (stereo unspecified), the TGI in the assay on HOP-62 NSCLC was above 100 µM; in the assay on MOLT-4 leukemia it was above 100 µM; in the assay on OVCAR-3 ovarian it was above 100 µM; in the assay on SF-268 CNS, above 100 µM; in the assay with SK-MEL-28 melanoma, above 100 µM; with TK-10 renal, 65.7 µM. In the assay with UACC-62 melanoma, this molecule gave a TGI above 100 µM.

In the case of `COc1cccc(/C=C/C2=NN(c3cccc(S(=O)(=O)O)c3)C3(C2)SCC(=O)N3c2nc3ccccc3s2)c1` (stereo unspecified), the TGI is above 100 µM in the assay with A498 renal; above 100 µM with HCT-15 colon; 81.3 µM in the assay on MOLT-4 leukemia; above 100 µM with SF-268 CNS; above 100 µM in the assay with SK-MEL-28 melanoma; 81.1 µM in the assay on TK-10 renal. Further, the TGI with UACC-62 melanoma was above 100 µM.

For `S=C1CC(c2ccc(Cl)cc2)Sc2ccccc2N1` (stereo unspecified), the TGI with HCT-15 colon is above 100 µM; with HOP-62 NSCLC it was 35.1 µM; in the assay with MOLT-4 leukemia it was above 10 µM; in the assay with OVCAR-3 ovarian it was 68 µM; with SF-268 CNS, 79.3 µM; in the assay on SK-MEL-28 melanoma it was above 100 µM. Besides, the TGI with TK-10 renal and in the assay with UACC-62 melanoma was above 100 µM in each case.

On to `CC(=O)C(=C(I)I)c1ccccc1`, for which the TGI in the assay on A498 renal is 40.7 µM; in the assay on HCT-15 colon, above 100 µM; in the assay with HOP-62 NSCLC it was 38.7 µM; in the assay with MOLT-4 leukemia, 43.2 µM; with OVCAR-3 ovarian, 30.3 µM; with SF-268 CNS, 52.6 µM. Besides, the TGI worked out at 38.7 µM with SK-MEL-28 melanoma and 51.4 µM in the assay on UACC-62 melanoma.

With `CO[P@]1(=O)O[C@@H](c2ccccc2)[C@H](O)[C@]1(O)c1ccccc1`, the TGI with A498 renal, in the assay with HCT-15 colon, with OVCAR-3 ovarian, with SF-268 CNS, in the assay with SK-MEL-28 melanoma and in the assay with TK-10 renal was above 100 µM each time. In addition, the TGI in the assay on UACC-62 melanoma was above 100 µM.

With `CN(C)Cc1cc(C(=O)O)cc(CN(C)C)c1O`, the TGI in the assay on A498 renal, with HCT-15 colon, in the assay with HOP-62 NSCLC, with OVCAR-3 ovarian, in the assay with SF-268 CNS and with SK-MEL-28 melanoma was above 100 µM throughout. Also, the TGI in the assay on TK-10 renal and in the assay on UACC-62 melanoma was above 100 µM in each case.

As for `O=C(CSc1nc2ccc(I)cc2c(=O)n1Cc1ccccc1)Nc1ccc(Br)cc1`, the TGI in the assay on A498 renal was 68.1 µM; in the assay with HCT-15 colon it was above 100 µM; in the assay with HOP-62 NSCLC, above 100 µM; with MOLT-4 leukemia it was above 100 µM; in the assay on OVCAR-3 ovarian, above 100 µM; with SF-268 CNS, 28 µM. Also, the TGI with SK-MEL-28 melanoma and with UACC-62 melanoma was above 100 µM each time.

On to `Clc1ccc(OCc2nnc(CCCCCCCCc3nnc(COc4ccc(Cl)cc4Cl)o3)o2)c(Cl)c1`, for which the TGI in the assay with A498 renal, in the assay with HCT-15 colon, with MOLT-4 leukemia, in the assay with SF-268 CNS, with SK-MEL-28 melanoma and in the assay on TK-10 renal was above 100 µM in each case. The molecule also yielded a TGI in the assay with UACC-62 melanoma above 100 µM.

Take `CC(NC(=O)C(NC(=O)OC(C)(C)C)C(C)C)C(=O)NCC(=O)O` (stereo not drawn) (Boc-Val-Ala-Gly-OH; configuration not given here): the TGI with HCT-15 colon, in the assay with HOP-62 NSCLC, in the assay with MOLT-4 leukemia, with OVCAR-3 ovarian, with SF-268 CNS and in the assay on SK-MEL-28 melanoma was above 100 µM throughout. For the same molecule, the TGI in the assay with TK-10 renal and in the assay on UACC-62 melanoma was above 100 µM each time.

As to `CC(=O)Nc1ccc(Nc2nc(=O)[nH]c(=O)[nH]2)cc1`, the TGI with A498 renal, in the assay on HCT-15 colon, with HOP-62 NSCLC, in the assay on OVCAR-3 ovarian, in the assay with SF-268 CNS and in the assay with SK-MEL-28 melanoma was above 100 µM each time. Further, the TGI in the assay with TK-10 renal and with UACC-62 melanoma was above 100 µM in each case.

Take `Cc1cc2ccccc2c[n+]1CC(=O)CC([O-])(C(F)(F)F)C(F)(F)F`: the TGI with A498 renal, with HCT-15 colon, in the assay on HOP-62 NSCLC, in the assay with MOLT-4 leukemia, in the assay with OVCAR-3 ovarian and in the assay with SF-268 CNS was above 100 µM each time. The TGI in the assay with SK-MEL-28 melanoma and with UACC-62 melanoma was above 100 µM in each case.

Take `c1ccc(N=NNNc2ccc(-c3nc4ccccc4[nH]3)cc2)cc1`: the TGI with A498 renal was above 100 µM; in the assay on HCT-15 colon, above 100 µM; in the assay with HOP-62 NSCLC, above 100 µM; with MOLT-4 leukemia, 36.8 µM; in the assay with OVCAR-3 ovarian, 38.1 µM; in the assay with SK-MEL-28 melanoma, above 100 µM. The TGI with TK-10 renal was above 100 µM.

The values above are taken from PubChem BioAssay (NCI).
